How the values were obtained:
Test in all cases: area under concentration-response curve (viability) (AUC (a.u.)); higher = less active
Conditions in all cases: 48 h
[1] = system: CU-ACC2
Procedure, shortened: (§1)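 Three adrenocortical carcinoma cell lines were exposed for 48 h to library compounds at 11 concentrations in 1,536-well plates, then read by CellTiter-Glo luminescence. Signals were scaled per plate against vehicle and empty-well controls. From fitted concentration-response curves of inhibitory or non-responding classes alone, AC50 and area under the curve were obtained.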

[2] = system: NCI-H295R
Procedure, shortened: as §1

[3] = system: CU-ACC1
Procedure, shortened: as §1

Compound | area under concentration-response curve [1] | area under concentration-response curve [2] | area under concentration-response curve [3]
Nc1cccc([S+](=O)([O-])N2CCCN([S+](=O)([O-])c3ccc4c(c3)OCCO4)CC2)c1 | 634 | 546 | –
C[C@]12CCC\3=C\4CCC(=O)\C=C4CC[C@H]3[C@@H]1CC[C@@]2(O)CC#N | 649 | 606 | –
CCC(c1ccc(O)cc1)C(CC)c1ccc(O)cc1 (stereo not given) | 656 | 607 | –
CC(C)(C)NC(=O)[C@H]1CC[C@H]2[C@@H]3CC[C@H]4NC(=O)\C=C/[C@]4(C)[C@H]3CC[C@]12C | 622 | – | 618
CC(C)c1ccc2c(c1)c(SC(C)(C)C)c(CC(C)(C)C(=O)[O-])n2Cc1ccc(Cl)cc1 | 572 | – | 457
Cn1ccc2cc3c(cc21)CCN3C(=O)Nc1cccnc1 | 490 | – | 455
CC1(N)CCN(c2cccnc2NC(=O)c2nc(-c3ncccc3C(F)(F)F)cnc2N)CC1 | 509 | – | 430
c1ccc2c(Cc3c[nH]c4ccccc34)c[nH]c2c1 | 574 | – | 505
CCCCOc1ccc(C(=O)Nc2ccc(F)cc2F)cc1 | 586 | – | 514
Cc1[nH]c(=O)c(C#N)cc1-c1ccc2nccn2c1.Cl | 624 | – | 587
CN1C(=N)N[C@](C)(c2cc(NC(=O)c3ccc(F)cn3)ccc2F)C[S+]1(=O)[O-] | 611 | – | 563
CN1CCc2c(c3ccccc3n2Cc2ccc(C(=O)NO)cc2)C1 | 595 | – | 553
CC(=O)Oc1cc2c(s1)CCN(C(C(=O)C1CC1)c1ccccc1F)C2 (stereo not given) | 476 | – | 492
CN(C)C(=N)NC(=N)N | 572 | – | 550
CC(C)Cc1ccc(C(C)C(=O)O)cc1 (stereo not given) | 583 | – | 539
Nc1ncnc2c1nc(Cl)n2[C@@H]1O[C@H](CO)[C@@H](O)[C@H]1O | 542 | – | 471
CN1CCN(CC1)C2=CC=C(NC3=NC=C4\C=C(\C#N)C(=O)N(C5CCCC5)C4=N3)C=C2 | 588 | – | 548
CN(Cc1cc(Br)cc(Br)c1N)C1CCCCC1 | 526 | – | 383
N=C1N[C@H]2[C@H](CS[C@H]2CCCCC(=O)O)N1 | 256 | – | 217
CC1=C(/C=C/C(C)=C/C=C/C(C)=C\C(=O)O)C(C)(C)CCC1 | 586 | – | 491

Compound | area under concentration-response curve [1] | area under concentration-response curve [2] | area under concentration-response curve [3]
CN(C)CCN(C)CCc1ccc(Cl)c(Cl)c1 | 581 | – | 574
C[N]1C=C(C2=CC=CC=C12)\C3=C(\C(=O)NC3=O)C4=C[N](C5CCN(CC5)CC6=NC=CC=C6)C7=C4C=CC=C7 | 500 | – | 494
CCC[S+]([O-])c1ccc2[nH]c(NC(=O)OC)nc2c1 (stereo not given) | 595 | – | 502
c1ccc(-c2nn3c(c2-c2ccnc4cc(OCCN5CCOCC5)ccc24)CCC3)nc1 | 496 | – | 479
COc1ccc2c(c1)c(CC(=O)O)c(C)n2C(=O)c1ccc(Cl)cc1 | 566 | – | 495
CN1CCC(=C2c3ccccc3CC(=O)c3sccc32)CC1 | 537 | – | 557
CCCCCCCCCCCC/1=C(O)/C(=O)/C=C(O)\C1=O | 593 | – | 534
CCCCCCCCCCCCCCCCOCCCO[P](O)(=O)COC(CO)CN1/C=C\C(=N/C1=O)N (stereo not given) | 609 | – | 551
CCN1CCCC1CNC(=O)c1cc([S+](=O)([O-])CC)c(N)cc1OC (stereo not given) | 591 | – | 561
CCOC(=N)c1nc2ccc3ncnc(Nc4cc(F)c(F)cc4Cl)c3c2s1 | 653 | – | 424
O=C(Oc1ccc([N+](=O)[O-])cc1)N1CCN(Cc2cccc(Oc3ccccc3)c2)CC1 | 556 | – | 531
CCC(C)(C)c1ccc(CC(C)CN2C[C@@H](C)O[C@@H](C)C2)cc1 (stereo not given in full) | 504 | – | 462
O=P(O)(O)C(O)(Cn1ccnc1)P(=O)(O)O | 679 | – | 628
CC(C)NCCCn1c(Sc2cc(Cl)cc(Cl)c2)nc2c(N)ncnc21 | 572 | – | 511
C[C@H](NC1=NC=NC2=C1[NH]C=N2)\C3=N\C4=C(C=C(F)C=C4)C(=O)N3C5=CC=CC=C5 | 280 | – | 344
Nc1nc(-c2nn(Cc3ccccc3F)c3ncccc23)nc(N)c1N1CCOCC1 | 599 | – | 605
CCc1cc(/C(C)=N/OCc2ccc(C3CCCCC3)c(C(F)(F)F)c2)ccc1CN1CC(C(=O)O)C1 | 526 | – | 462
CCC(=O)OCC(=O)C1(OC(=O)CC)C(C)CC2C3CC\C4=C\C(=O)\C=C/C4(C)C3(F)C(O)CC12C (stereo not given) | 613 | – | 528
CC(C)(O)CCc1ccc(OCc2cc(-c3cccc(OC(F)F)c3)c3ncccc3c2)cc1 | 586 | – | 543
C[C@H](NC(=O)C1=C2N=CC=C[N]2N=C1N)\C3=C\C4=CC=CC(=C4C(=O)N3C5=CC=CC=C5)C#CC6=C[N](C)N=C6 | 608 | – | 511

Compound | area under concentration-response curve [1] | area under concentration-response curve [2] | area under concentration-response curve [3]
CCC\C1=C\C(=O)NC(=S)N1 | 545 | – | 467
COc1cc([C@@H]2c3cc4c(cc3[C@@H](O[C@@H]3O[C@@H]5CO[C@@H](C)O[C@H]5[C@H](O)[C@H]3O)[C@H]3COC(=O)[C@H]23)OCO4)cc(OC)c1O | 592 | – | 492
CCCCOc1nc(N)c2c(n1)N(Cc1cccc(CN3CCCC3)c1)CC(=O)N2 | 506 | – | 538
Cc1c(C(=O)Nc2cccc(C(F)(F)F)c2)cc(-c2ccccc2)n1CCCN1CCOCC1 | 610 | – | 573
F\C1=C\NC(=O)NC1=O | 505 | – | 483
O=C(NCCO[N+](=O)[O-])c1cccnc1 | 605 | – | 566
NC(=O)c1ccc(I)c([N+](=O)[O-])c1 | 583 | – | 549
CC(=O)Nc1ccc(OC[C@](C)(O)C(=O)Nc2ccc([N+](=O)[O-])c(C(F)(F)F)c2)cc1 | 515 | – | 519
COc1ccccc1C(=O)Nc1cc2c(cc1N1CCCC1)n(C)c(=O)n2C | 602 | – | 537
O=C/1\C=C(/OC(=C1)/C2=C3SC4=C(SC3=CC=C2)C=CC=C4)N5CCOCC5 | 650 | – | 550
CC(C)(C)C1=NC2=C([NH]1)C3=CC=C(F)C=C3C4=C2\C=C/NC4=O | 500 | – | 494
O=C1CC(c2c[nH]c3ccc(F)cc23)C(=O)N1 (stereo not given) | 424 | – | 465
CCc1ccc(N(CC(C)C)[S+](=O)([O-])c2ccc(OCC3CCOCC3)c(CO)c2)cc1 | 586 | – | 466
COc1ccnc(C[S+]([O-])c2nc3cc(OC(F)F)ccc3[nH]2)c1OC (stereo not given) | 585 | – | 554
Nc1c2c(nc3ccccc13)CCCC2 | 653 | – | 583
CC1(C)O[C@@H]2C[C@H]3[C@@H]4C[C@H](F)C/5=C/C(=O)/C=C\[C@]5(C)[C@@]4(F)[C@@H](O)C[C@]3(C)[C@@]2(O1)C(=O)CO | 586 | – | 485
CO[C@@H]1COCC[C@@H]1N[C@@H]1CC[C@@](C(=O)N2CCc3ncc(C(F)(F)F)cc3C2)(C(C)C)C1 | 640 | – | 591
CCN(CC)C(=O)Cc1csc(N[S+](=O)([O-])c2cccc(Cl)c2C)n1 | 445 | – | 415
Cc1cc(C(=O)Nc2cc(Oc3ccc4nc(NC(=O)C5CC5)cn4n3)ccc2C)n(C)n1 | 606 | – | 511
CCOC(=O)N[C@@H]1CC[C@@H]2[C@@H](C1)C[C@H]1C(=O)O[C@H](C)[C@H]1[C@H]2/C=C/c1ccc(-c2cccc(F)c2)cn1 | 511 | – | 537
